What is called pIC50 is −log10 of the IC50, conventionally taken in molar units.

The values that follow come from patent publication US20240269298A1, “PHOSPHONYL DERIVATIVE, AND COMPOSITION AND PHARMACEUTICAL APPLICATION THEREOF” (XIZANG HAISCO PHARMACEUTICAL CO., LTD., priority 2021, published 2024).

pIC50: −log10 of the molar value. Like-named read-outs stand apart in the source and are kept apart here.

Assay [1] has as its system NCI-H1975 (EGFR-L858R-T790M) cells. In words: Inhibitory activity on proliferation of NCI-H1975 (EGFR-L858R-T790M) cells (CTG, 72 h). Type of assay: cell-based. The settings on record: Homo sapiens. An outline of the steps:
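IC50 values come from S-shaped dose-survival fits of CTG signal expressed as % of vehicle. Compound exposure lasted 72 h at 37 °C with 0.1% DMSO; seeding was 3000 A431 cells/well in DMEM+10% FBS and 1000 NCI-H1975 cells/well in RPMI1640+10% FBS.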

A further assay concerns A431 (EGFR-WT) cells. In words: Inhibitory activity on proliferation of A431 (EGFR-WT) cells (CTG, 72 h). Format: cell-based. The following applies: Homo sapiens, A-431. As to the method:
NCI-H1975 (EGFR-L858R-T790M) and A431 (EGFR-WT) cells were purchased from ATCC and cultured in an incubator at 37° C. with 5% CO2, and the culture mediums were RPMI1640+10% FBS and DMEM+10% FBS, respectively. On the first day, NCI-H1975 (EGFR-L858R-T790M) and A431 (EGFR-WT) cells in the logarithmic phase were collected, and viable cells were counted using an automatic cell analyzer (countstar). The cell suspensions were adjusted with the culture mediums and plated on a 96-well cell culture plate at 1000 cells/well for NCI-H1975 (EGFR-L858R-T790M) cells and at 3000 cells/well for A431 cells. The next day, the culture mediums were aspirated, and 90 μL of fresh culture mediums and 10 μL of the compounds at different concentrations were added to each well, wherein the final concentration of DMSO in each well was 0.1%. The plate was cultured in the incubator at 37° C. with 5% CO2 for 72 hours. After 72 hours of drug treatment, 50 μL of CTG solution (promega, G7572), which was already pre-melted and equilibrated to room temperature, was added to each well, and the mixtures were uniformly mixed for 2 min using a microplate shaker. The plate was placed at room temperature for 10 min, and then […] signal values were measured using a microplate reader (PHERAstar FSX).
Surviving cells % was calculated based on Vsample/Vvehicle control×100%, wherein Vsample was the readout of the drug-treated group, and Vvehicle control was the average value of the vehicle control group. Using the origin 9.2 software and nonlinear regression model, S-shaped dose-survival curves were plotted, and IC50 values were calculated.

The mark [2] stands for this setting: read-out: IC50 (value in brackets).

Take `COc1cc(N2CCC(C(=O)N3CCN(c4ccc5c(c4)C(=O)N(C4CCC(=O)NC4=O)C5=O)CC3)CC2)c(-c2cnn(C)c2)cc1Nc1ncc(Br)c(Nc2ccccc2P(C)(C)=O)n1` (stereo not drawn) [Compound 146, 5-(4-(1-(4-((5-bromo-4-((2-(dimethylphosphoryl)phenyl)amino)pyrimidin-2-yl)amino)-5-methoxy-2-(1-methyl-1H-pyrazol-4-yl)phenyl)piperidine-4-carbonyl)piperazin-1-yl)-2-(2,6-dioxopiperidin-3-yl)isoindoline-1,3-dione]: the negative-log IC50 (pIC50) in assay [1] (read-out: IC50 (class symbol)) is more than 7.00; in assay [1] (setting [2]), 7.02; in the assay with A431 (EGFR-WT) cells, not above 5.00.
The like results for `COc1cc(N2CCN(C[C@H]3CCN(c4ccc5c(c4)C(=O)N(C4CCC(=O)NC4=O)C5=O)C3)CC2)c(-c2cnn(C)c2)cc1Nc1ncc(Cl)c(Nc2ccc(-c3ccccc3)cc2P(C)(C)=O)n1` (stereo partly drawn) [Compound 118, 5-((R)-3-((4-(4-((5-chloro-4-((3-(dimethylphosphoryl)-[1,1′-biphenyl]-4-yl)amino)pyrimidin-2-yl)amino)-5-methoxy-2-(1-methyl-1H-pyrazol-4-yl)phenyl)piperazin-1-yl)methyl)pyrrolidin-1-yl)-2-(2,6-dioxopiperidin-3-yl)isoindoline-1,3-dione] were, in that order, more than 7.00, 7.40 and not above 5.00.
The matching figures for `COc1cc(N2CCC(CN3CC4CN(c5ccc6c(c5)C(=O)N(C5CCC(=O)NC5=O)C6=O)CC4C3)CC2)c(-c2cnn(C)c2)cc1Nc1ncc(Br)c(Nc2ccc(-c3ccccc3)cc2P(C)(C)=O)n1` (stereo not drawn) [Compound 78, 5-(5-((1-(4-((5-bromo-4-((3-(dimethylphosphoryl)-[1,1′-biphenyl]-4-yl)amino)pyrimidin-2-yl)amino)-5-methoxy-2-(1-methyl-1H-pyrazol-4-yl)phenyl)piperidin-4-yl)methyl)hexahydropyrrolo[3,4-c]pyrrol-2(1H)-yl)-2-(2,6-dioxopiperidin-3-yl)isoindoline-1,3-dione]: more than 7.00, 7.29 and not above 5.00.
The matching figures for `COc1cc(N2CCC(C3CCN(C4CC5(CCN(c6ccc7c(c6)C(=O)N(C6CCC(=O)NC6=O)C7=O)CC5)C4)CC3)CC2)c(-c2cnn(C)c2)cc1Nc1ncc(Cl)c(Nc2ccc3nccnc3c2P(C)(C)=O)n1` (stereo not drawn) [Trifluoroacetate of compound 14, 5-(2-(1′-(4-((5-chloro-4-((5-(dimethylphosphoryl)quinoxalin-6-yl)amino)pyrimidin-2-yl)amino)-5-methoxy-2-(1-methyl-1H-pyrazol-4-yl)phenyl)-[4,4′-bipiperidin]-1-yl)-7-azaspiro[3.5]nonan-7-yl)-2-(2,6-dioxopiperidin-3-yl)isoindoline-1,3-dione]: more than 7.00, 7.31 and not above 5.00.
On to `COc1cc(N2CCC(C(=O)N3CCN(c4ccc5c(c4)C(=O)N(C4CCC(=O)NC4=O)C5=O)CC3)CC2)c(-c2cnn(C)c2)cc1Nc1ncc(Cl)c(Nc2ccc(C3CC3)cc2P(C)(C)=O)n1` (stereo not drawn) [Compound 143, 5-(4-(1-(4-((5-chloro-4-((4-cyclopropyl-2-(dimethylphosphoryl)phenyl)amino)pyrimidin-2-yl)amino)-5-methoxy-2-(1-methyl-1H-pyrazol-4-yl)phenyl)piperidine-4-carbonyl)piperazin-1-yl)-2-(2,6-dioxopiperidin-3-yl)isoindoline-1,3-dione], for which the negative-log IC50 (pIC50) in assay [1] (read-out: IC50 (class symbol)) was 6.30 to 7.00; in assay [1] (setting [2]) it was 6.96; in the assay on A431 (EGFR-WT) cells, not above 5.00.
Consider `COc1cc(N2CCN(C[C@H]3CCN(c4ccc5c(c4)C(=O)N(C4CCC(=O)NC4=O)C5=O)C3)CC2)c(-c2cnn(C)c2)cc1Nc1ncc(Cl)c(Nc2ccc(C3CC3)cc2P(C)(C)=O)n1` (stereo partly drawn) [Compound 119, 5-((R)-3-((4-(4-((5-chloro-4-((4-cyclopropyl-2-(dimethylphosphoryl)phenyl)amino)pyrimidin-2-yl)amino)-5-methoxy-2-(1-methyl-1H-pyrazol-4-yl)phenyl)piperazin-1-yl)methyl)pyrrolidin-1-yl)-2-(2,6-dioxopiperidin-3-yl)isoindoline-1,3-dione], for which the negative-log IC50 (pIC50) in assay [1] (read-out: IC50 (class symbol)) was more than 7.00; in assay [1] (setting [2]), 7.54; in the assay with A431 (EGFR-WT) cells, not above 5.00.
The like results for `CCn1cc(-c2cc(Nc3ncc(Cl)c(Nc4ccc(-c5ccccc5)cc4P(C)(C)=O)n3)c(OC)cc2N2CCC(CN3CCN(c4ccc5c(c4)C(=O)N(C4CCC(=O)NC4=O)C5=O)CC3)CC2)cn1` (stereo not drawn) [Compound 110, 5-(4-((1-(4-((5-chloro-4-((3-(dimethylphosphoryl)-[1,1′-biphenyl]-4-yl)amino)pyrimidin-2-yl)amino)-2-(1-ethyl-1H-pyrazol-4-yl)-5-methoxyphenyl)piperidin-4-yl)methyl)piperazin-1-yl)-2-(2,6-dioxopiperidin-3-yl)isoindoline-1,3-dione] were, in that order, 6.30 to 7.00, 6.63 and not above 5.00.
The matching figures for `COc1cc(N2CCC(CN3CCN(c4ccc5c(c4)C(=O)N([C@H]4CCC(=O)NC4=O)C5=O)CC3)CC2)c(-c2cnn(C)c2)cc1Nc1ncc(Br)c(Nc2ccc(C3CC3)cc2P(C)(C)=O)n1` [Compound 170]: more than 7.00, 7.33 and not above 5.00.
On to `COc1cc(N2CCC(CN3CCN(c4ccc5c(c4)C(=O)N([C@@H]4CCC(=O)NC4=O)C5=O)CC3)CC2)c(-c2cnn(C)c2)cc1Nc1ncc(Br)c(Nc2ccc(C3CC3)cc2P(C)(C)=O)n1` [Compound 171], for which the negative-log IC50 (pIC50) in assay [1] (read-out: IC50 (class symbol)) is more than 7.00; in assay [1] (setting [2]), 7.11; in the assay with A431 (EGFR-WT) cells, not above 5.00.
The matching figures for `COc1cc(N2CCC(CN3CCCC4(CCN(c5ccc6c(c5)C(=O)N(C5CCC(=O)NC5=O)C6=O)CC4)C3)CC2)c(-c2cnn(C)c2)cc1Nc1ncc(Cl)c(Nc2ccc3nccnc3c2P(C)(C)=O)n1` (stereo not drawn) [Compound 1, 5-(2-((1-(4-((5-chloro-4-((5-(dimethylphosphoryl)quinoxalin-6-yl)amino)pyrimidin-2-yl)amino)-5-methoxy-2-(1-methyl-1H-pyrazol-4-yl)phenyl)piperidin-4-yl)methyl)-2,9-diazaspiro[5.5]undecan-9-yl)-2-(2,6-dioxopiperidin-3-yl)isoindoline-1,3-dione]: more than 7.00, 7.37 and not above 5.00.
The like results for `COc1cc(N2CCC3(CCN(c4ccc5c(c4)C(=O)N(C4CCC(=O)NC4=O)C5=O)CC3)CC2)c(-c2cnn(C)c2)cc1Nc1ncc(Br)c(Nc2ccccc2P(C)(C)=O)n1` (stereo not drawn) [Compound 164, 5-(9-(4-((5-bromo-4-((2-(dimethylphosphoryl)phenyl)amino)pyrimidin-2-yl)amino)-5-methoxy-2-(1-methyl-1H-pyrazol-4-yl)phenyl)-3,9-diazaspiro[5.5]undecan-3-yl)-2-(2,6-dioxopiperidin-3-yl)isoindoline-1,3-dione] were, in that order, 6.30 to 7.00, 6.96 and not above 5.00.
The matching figures for `COc1cc(N2CCN(c3ccc4c(c3)C(=O)N(C3CCC(=O)NC3=O)C4=O)CC2)c(-c2cnn(C)c2)cc1Nc1ncc(Br)c(Nc2ccc(C3CC3)cc2P(C)(C)=O)n1` (stereo not drawn) [Compound 166, 5-(4-(4-((5-bromo-4-((4-cyclopropyl-2-(dimethylphosphoryl)phenyl)amino)pyrimidin-2-yl)amino)-5-methoxy-2-(1-methyl-1H-pyrazol-4-yl)phenyl)piperazin-1-yl)-2-(2,6-dioxopiperidin-3-yl)isoindoline-1,3-dione]: 6.30 to 7.00, 6.94 and not above 5.00.
